{"source": "ChEMBL document CHEMBL6127068", "about": "“Discovery of novel nitrofuran PROTAC-like compounds as dual inhibitors and degraders targeting STING” (Eur J Med Chem, 2024)", "key": {"[1]": {"biological_target": "T1, Protein cereblon/Stimulator of interferon genes protein (Homo sapiens, UniProt Q96SW2+Q86WV6)", "T1 sequence (Q86WV6 whole entry, looked up)": "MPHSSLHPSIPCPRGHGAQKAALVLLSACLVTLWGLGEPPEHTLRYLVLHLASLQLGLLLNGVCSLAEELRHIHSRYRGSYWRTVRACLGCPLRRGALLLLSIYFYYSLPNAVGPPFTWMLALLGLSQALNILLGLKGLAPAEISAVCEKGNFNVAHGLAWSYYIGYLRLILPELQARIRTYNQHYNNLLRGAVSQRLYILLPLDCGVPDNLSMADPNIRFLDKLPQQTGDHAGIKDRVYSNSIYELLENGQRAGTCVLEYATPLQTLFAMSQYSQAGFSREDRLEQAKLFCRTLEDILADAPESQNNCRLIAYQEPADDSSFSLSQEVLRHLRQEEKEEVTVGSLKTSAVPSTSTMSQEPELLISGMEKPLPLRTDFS", "T1 sequence (Q96SW2 whole entry, looked up)": "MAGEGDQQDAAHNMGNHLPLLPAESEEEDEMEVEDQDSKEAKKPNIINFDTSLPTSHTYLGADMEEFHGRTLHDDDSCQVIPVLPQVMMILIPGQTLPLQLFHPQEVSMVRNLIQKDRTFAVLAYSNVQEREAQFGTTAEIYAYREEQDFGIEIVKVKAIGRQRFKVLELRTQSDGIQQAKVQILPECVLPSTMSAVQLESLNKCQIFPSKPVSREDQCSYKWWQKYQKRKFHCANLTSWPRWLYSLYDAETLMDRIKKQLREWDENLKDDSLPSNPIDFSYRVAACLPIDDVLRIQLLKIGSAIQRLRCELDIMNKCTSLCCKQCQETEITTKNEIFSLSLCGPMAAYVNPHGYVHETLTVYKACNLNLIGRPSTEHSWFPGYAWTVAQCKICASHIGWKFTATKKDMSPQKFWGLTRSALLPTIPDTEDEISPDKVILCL", "assay": "PROTAC activity at CRBN/STING in human THP-1 cells assessed as induction of STING degradation at 10 uM pretreated with proteasome inhibitor, MG132 for 1 hr followed by incubation with compound for 24 hrs by western blot analysis", "format": "cell-based"}, "[2]": {"biological_target": "T1, Protein cereblon/Stimulator of interferon genes protein", "assay": "PROTAC activity at CRBN/STING in human THP-1 cells assessed as induction of STING degradation at 10 uM incubated for 24 hrs by western blot analysis", "format": "cell-based"}, "[3]": {"biological_target": "T2, von Hippel-Lindau disease tumor suppressor/Stimulator of interferon genes protein (Homo sapiens, UniProt P40337+Q86WV6)", "assay": "PROTAC activity at VHL/STING (unknown origin) assessed as induction of protein degradation", "format": "protein assay"}, "[4]": {"biological_target": "T2, von Hippel-Lindau disease tumor suppressor/Stimulator of interferon genes protein", "assay": "PROTAC activity at VHL/STING (unknown origin) assessed as induction of protein degradation relative to control", "format": "protein assay"}, "[5]": {"assay": "Cytotoxicity against HUVEC assessed as reduction in cell viability at 3.3 uM incubated for 48 hrs by MTT assay", "format": "toxicity, cell-based", "settings": "human, HUVEC cells, read-out: INH"}, "[6]": {"assay": "Cytotoxicity against HEK293T cells assessed as reduction in cell viability at 3.3 uM incubated for 48 hrs by MTT assay", "format": "toxicity, cell-based, HEK-293T", "settings": "human, read-out: INH"}}, "note": "Calls of active or inactive are those of the source. The calls are words filed in the database; no cut-off is given here.", "data": [{"smiles": "CN1C(=O)CCC(N2C(=O)c3cccc(OCc4cn(CCCCCC(=O)OCCc5ccc(NC(=O)c6ccc([N+](=O)[O-])o6)cc5)nn4)c3C2=O)C1=O", "note": "(stereo not drawn)", "values": [{"measurement": "Activity", "setting": "[1]", "result": "Active"}]}, {"smiles": "O=C1CCC(N2C(=O)c3ccc(OCc4cn(CC(=O)OCCc5ccc(NC(=O)c6ccc([N+](=O)[O-])o6)cc5)nn4)cc3C2=O)C(=O)N1", "note": "(stereo not drawn)", "values": [{"measurement": "Activity", "setting": "[2]", "result": "Active"}]}, {"smiles": "Cc1ncsc1-c1ccc([C@H](C)NC(=O)[C@@H]2C[C@@H](O)CN2C(=O)[C@@H](NC(=O)CCC(=O)NCCCNC(=O)c2cccc(S(=O)(=O)n3cc(C(=O)NCCCCCC(=O)Oc4ccc(NC(=O)c5ccc(-c6ccccc6)cc5)cc4NS(=O)(=O)c4ccc(F)cc4)ccc3=O)c2)C(C)(C)C)cc1", "values": [{"measurement": "DC50", "setting": "[3]", "result": 530, "unit": "nM"}, {"measurement": "Activity", "setting": "[4]", "result": 56.6, "unit": "%"}]}, {"smiles": "O=C1CCC(N2C(=O)c3cccc(OCc4cn(CCCC(=O)OCc5ccc(NC(=O)c6ccc([N+](=O)[O-])o6)cc5)nn4)c3C2=O)C(=O)N1", "note": "(stereo not drawn)", "values": [{"measurement": "Activity", "setting": "[2]", "result": "Active"}]}, {"smiles": "O=C1CCC(N2C(=O)c3cccc(OCc4cn(CC(=O)OCc5ccc(NC(=O)c6ccc([N+](=O)[O-])o6)cc5)nn4)c3C2=O)C(=O)N1", "note": "(stereo not drawn)", "values": [{"measurement": "Activity", "setting": "[2]", "result": "Active"}]}, {"smiles": "O=C1CCC(N2C(=O)c3ccc(OCc4cn(CCCC(=O)OCCc5ccc(NC(=O)c6ccc([N+](=O)[O-])o6)cc5)nn4)cc3C2=O)C(=O)N1", "note": "(stereo not drawn)", "values": [{"measurement": "Activity", "setting": "[2]", "result": 76, "unit": "%"}]}, {"smiles": "O=C1CCC(N2C(=O)c3cccc(OCc4cn(CCCC(=O)Oc5ccc(NC(=O)c6ccc([N+](=O)[O-])o6)cc5)nn4)c3C2=O)C(=O)N1", "note": "(stereo not drawn)", "values": [{"measurement": "Activity", "setting": "[2]", "result": "Active"}]}, {"smiles": "O=C1CCC(N2C(=O)c3cccc(OCc4cn(CCCCCC(=O)OCc5ccc(NC(=O)c6ccc([N+](=O)[O-])o6)cc5)nn4)c3C2=O)C(=O)N1", "note": "(stereo not drawn)", "values": [{"measurement": "Activity", "setting": "[2]", "result": "Active"}]}, {"smiles": "CCCCc1ccc(NC(=O)c2ccc([N+](=O)[O-])o2)cc1", "values": [{"measurement": "cytotoxicity at 48 h, 3.3 µM", "setting": "[5]", "result": 68.2, "unit": "%"}, {"measurement": "cytotoxicity at 48 h, 3.3 µM", "setting": "[6]", "result": 80.1, "unit": "%"}]}, {"smiles": "O=C1CCC(N2C(=O)c3cccc(OCc4cn(CCCCCC(=O)Oc5ccc(NC(=O)c6ccc([N+](=O)[O-])o6)cc5)nn4)c3C2=O)C(=O)N1", "note": "(stereo not drawn)", "values": [{"measurement": "Activity", "setting": "[2]", "result": "inactive"}]}, {"smiles": "O=C1CCC(N2C(=O)c3cccc(OC(=O)CCCc4cn(CCCCCC(=O)Oc5ccc(NC(=O)c6ccc([N+](=O)[O-])o6)cc5)nn4)c3C2=O)C(=O)N1", "note": "(stereo not drawn)", "values": [{"measurement": "Activity", "setting": "[2]", "result": 71, "unit": "%"}]}]}
